pIC50: −log10 of the molar value.

The source of these data is patent US10669289B2, “Boronic acid derivatives” (MERCK PATENT GMBH, priority 2014, dated 2020).

The target in assay [1] is human immuno proteasome (LMP7) (Homo sapiens (Human), UniProt P28062). Briefly: Determination of LMP7 activity (fluorescence intensity assay, Suc-LLVY-AMC). Type of assay: biochemical. An outline of the steps:
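Fluorogenic Suc-LLVY-AMC cleavage (40 μM substrate, 60 min, 37° C., ex 350/em 450 nm) measured after 0.25 nM human immunoproteasome was exposed to compound at 30 μM–15 pM. Preincubation was 20 min by default or 120 min (long) at 25° C., in Tris pH 7.4 with 0.03% SDS, 1 mM EDTA and 1% DMSO.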

In assay [2] the target is human constitutive proteasome (Beta5) (Homo sapiens (Human), UniProt P28074). Briefly: Determination of Beta5 activity (fluorescence intensity assay, Suc-LLVY-AMC). The assay is classed as biochemical. An outline of the steps:
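Purified human constitutive proteasome (1.25 nM) preincubated with compounds (30 μM–15 pM) for 20 min (default) or 120 min at 25 °C in 50 mM Tris pH 7.4, 0.03% SDS, 1 mM EDTA, 1% DMSO. Suc-LLVY-AMC substrate at 40 μM, 60 min at 37 °C. Fluorescence read at ex 350/em 450 nm.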

Where [3] appears, read: LMP7 versus Beta5, long incubation (120 min).
Where [4] appears, read: LMP7 versus Beta5, incubation for 20 minutes.

`C=CC(=O)N(CC(=O)N[C@@H](Cc1ccsc1)B(O)O)c1ccccc1Cl` [Compound No. 89, [(1R)-1-[[2-(2-chloro-N-prop-2-enoyl-anilino)acetyl]amino]-2-(3-thienyl)ethyl]boronic Acid]: the “Selectivity LMP7 vs Beta5” value in assay [1] (setting [3]) is listed as “+++++ (Selectivity ≥ 150)”. For the same compound, the results for the pIC50 in assay [1] (long incubation (120 min)) and in assay [2] (long incubation (120 min)) were 6.30 to 7.30 and less than 5.30, respectively.

In the case of `C=CC(=O)N(CC(=O)N[C@@H](C[C@@H]1COc2ccccc21)B(O)O)c1ccccc1F` [Compound No. 100, [(1R)-2-[(3S)-2,3-dihydrobenzofuran-3-yl]-1-[[2-(2-fluoro-N-prop-2-enoyl-anilino)acetyl]amino]ethyl]boronic Acid], in assay [1] (setting [3]), the “Selectivity LMP7 vs Beta5” value was “+++++ (Selectivity ≥ 150)”. Besides, the pIC50 (usually −log10 of the IC50, conventionally taken in molar units) in assay [1] (long incubation (120 min)) was more than 7.30; in assay [2] (long incubation (120 min)) it was 5.30 to 6.30.

Turning to `C=CC(=O)N(C)CC(=O)N[C@@H](Cc1ccc(C)cc1C)B(O)O` [Compound No. 33, [(1R)-2-(2,4-dimethylphenyl)-1-[[2-[methyl(prop-2-enoyl)amino]-acetyl]amino]ethyl]boronic Acid], in assay [1] (setting [4]), the “Selectivity LMP7 vs Beta5” value was “+++++ (Selectivity ≥ 150)”. Also, the pIC50 was more than 7.30 in assay [1] (incubation for 20 minutes) and less than 5.30 in assay [2] (incubation for 20 minutes).

`C=CC(=O)N(CC(=O)N[C@@H](Cc1coc2ccccc12)B(O)O)c1ccccc1F` [Compound No. 86, [(1R)-2-(benzofuran-3-yl)-1-[[2-(2-fluoro-N-prop-2-enoyl-anilino)acetyl]amino]ethyl]boronic Acid]: the “Selectivity LMP7 vs Beta5” value in assay [1] (setting [3]) was “+++++ (Selectivity ≥ 150)”. Also, the pIC50 in assay [1] (long incubation (120 min)) is more than 7.30; in assay [2] (long incubation (120 min)), 6.30 to 7.30.

`C=CC(=O)N(CC(=O)N[C@@H](Cc1ccc(Cl)cc1Cl)B(O)O)C1CC1` [Compound No. 70, [(1R)-1-[[2-[cyclopropyl(prop-2-enoyl)amino]acetyl]amino]-2-(2,4-dichlorophenyl)ethyl]boronic Acid]: the “Selectivity LMP7 vs Beta5” value in assay [1] (setting [3]) is “+++++ (Selectivity ≥ 150)”. Further, the pIC50 is more than 7.30 in assay [1] (long incubation (120 min)) and less than 5.30 in assay [2] (long incubation (120 min)).

Take `Cc1ccc(C[C@H](NC(=O)CN(C)C(=O)/C=C/Cl)B(O)O)c(C)c1` [Compound No. 13, [(1R)-1-[[2-[[(E)-3-chloroprop-2-enoyl]-methyl-amino]acetyl]amino]-2-(2,4-dimethylphenyl)ethyl]boronic Acid]: the “Selectivity LMP7 vs Beta5” value in assay [1] (setting [4]) is “+++++ (Selectivity ≥ 150)”. Besides, the pIC50 in assay [1] (incubation for 20 minutes) is more than 7.30; in assay [2] (incubation for 20 minutes), 5.30 to 6.30.

“[(1R)-1-[[2-[but-2-ynoyl(propyl)amino]acetyl]amino]-2-(2,4-dimethylphenyl)ethyl]boronic Acid [Compound No. 3]”: in assay [1] (setting [4]), the “Selectivity LMP7 vs Beta5” value is on record as “+++ (70 ≤ 100)”. The results for the pIC50 in assay [1] (incubation for 20 minutes) and in assay [2] (incubation for 20 minutes) were 6.30 to 7.30 and less than 5.30, respectively.

Consider `C=CC(=O)N1CCC[C@H]1C(=O)N[C@@H](Cc1ccc(C)cc1C)B(O)O` [Compound No. 58, [(1R)-2-(2,4-dimethylphenyl)-1-[[(2S)-1-prop-2-enoylpyrrolidine-2-carbonyl]amino]ethyl]boronic Acid], for which, in assay [1] (setting [4]), the “Selectivity LMP7 vs Beta5” value is “++ (50 ≤ Selectivity < 70)”. Besides, the values for the pIC50 in assay [1] (incubation for 20 minutes) and in assay [2] (incubation for 20 minutes) were 5.30 to 6.30 and less than 5.30, respectively.

Regarding `C=CC(=O)NCC(=O)N[C@@H](Cc1ccc(C)c(C)c1)B(O)O` [Compound No. 88, [(1R)-2-(3,4-dimethylphenyl)-1-[[2-(prop-2-enoylamino)acetyl]amino]ethyl]boronic Acid], the “Selectivity LMP7 vs Beta5” value in assay [1] (setting [3]) is “+++++ (Selectivity ≥ 150)”. Also, the pIC50 in assay [1] (long incubation (120 min)) is more than 7.30; in assay [2] (long incubation (120 min)), 5.30 to 6.30.

Turning to `C=CC(=O)N(CC(=O)N[C@@H](Cc1ccc(C)cc1C)B(O)O)CC(F)F` [Compound No. 84, [(1R)-1-[[2-[2,2-difluoroethyl(prop-2-enoyl)amino]acetyl]-amino]-2-(2,4-dimethylphenyl)ethyl]boronic Acid], the “Selectivity LMP7 vs Beta5” value in assay [1] (setting [3]) is “+++++ (Selectivity ≥ 150)”. For the same compound, the pIC50 was 6.30 to 7.30 in assay [1] (long incubation (120 min)) and less than 5.30 in assay [2] (long incubation (120 min)).

`C/C=C(\C)C(=O)N(CC)CC(=O)N[C@@H](Cc1ccc(C)cc1C)B(O)O` [Compound No. 22, [(1R)-2-(2,4-dimethylphenyl)-1-[[2-[ethyl-[(E)-2-methylbut-2-enoyl]-amino]acetyl]amino]ethyl]boronic Acid]: the “Selectivity LMP7 vs Beta5” value in assay [1] (setting [4]) is listed as “++ (50 ≤ Selectivity < 70)”. Moreover, the pIC50 in assay [1] (incubation for 20 minutes) is 6.30 to 7.30; in assay [2] (incubation for 20 minutes), less than 5.30.

On to `C=CC(=O)N(CC(=O)N[C@@H](Cc1ccc(C)cc1C)B(O)O)c1cccc(F)c1F` [Compound No. 41, [(1R)-1-[[2-(2,3-difluoro-N-prop-2-enoyl-anilino)acetyl]amino]-2-(2,4-dimethylphenyl)ethyl]boronic Acid], for which the “Selectivity LMP7 vs Beta5” value in assay [1] (setting [3]) is “+++++ (Selectivity ≥ 150)”. In addition, the pIC50 was more than 7.30 in assay [1] (long incubation (120 min)) and less than 5.30 in assay [2] (long incubation (120 min)).

As for `C=CC(=O)N(CC(=O)N[C@@H](Cc1ccc(C)cc1C)B(O)O)c1ccccc1Cl` [Compound No. 87, [(1R)-1-[[2-(2-chloro-N-prop-2-enoyl-anilino)acetyl]amino]-2-(2,4-dimethylphenyl)ethyl]boronic Acid], the “Selectivity LMP7 vs Beta5” value in assay [1] (setting [4]) is on record as “+++++ (Selectivity ≥ 150)”. Moreover, the pIC50 in assay [1] (incubation for 20 minutes) is more than 7.30; in assay [2] (incubation for 20 minutes), less than 5.30.

Consider `C=CC(=O)N(C)CC(=O)N[C@@H](Cc1ccc2ccccc2c1)B(O)O` [Compound No. 82, [(1R)-1-[[2-[methyl(prop-2-enoyl)amino]acetyl]amino]-2-(2-naphthyl)ethyl]boronic Acid], for which the “Selectivity LMP7 vs Beta5” value in assay [1] (setting [3]) is given as “+++++ (Selectivity ≥ 150)”. In addition, the pIC50 in assay [1] (long incubation (120 min)) was more than 7.30; in assay [2] (long incubation (120 min)) it was 5.30 to 6.30.

With `C=CS(=O)(=O)N(C)CC(=O)N[C@@H](Cc1ccc(C)cc1C)B(O)O` [Compound No. 15, [(1R)-2-(2,4-dimethylphenyl)-1-[[2-[methyl(vinylsulfonyl)amino]-acetyl]amino]ethyl]boronic Acid], the “Selectivity LMP7 vs Beta5” value in assay [1] (setting [4]) is listed as “+++ (70 ≤ 100)”. Besides, the pIC50 in assay [1] (incubation for 20 minutes) was more than 7.30; in assay [2] (incubation for 20 minutes), 5.30 to 6.30.

As for `C=CC(=O)N(CC(=O)N[C@@H](Cc1ccsc1)B(O)O)c1ccccc1` [Compound No. 92, [(1R)-1-[[2-(N-prop-2-enoylanilino)acetyl]amino]-2-(3-thienyl)ethyl]boronic Acid], in assay [1] (setting [3]), the “Selectivity LMP7 vs Beta5” value is “+++++ (Selectivity ≥ 150)”. Further, the pIC50 was more than 7.30 in assay [1] (long incubation (120 min)) and less than 5.30 in assay [2] (long incubation (120 min)).

Turning to `C=CC(=O)N(CC#N)CC(=O)N[C@@H](Cc1ccc(C)c(C)c1)B(O)O` [Compound No. 63, [(1R)-1-[[2-[cyanomethyl(prop-2-enoyl)amino]acetyl]amino]-2-(3,4-dimethylphenyl)ethyl]boronic Acid], the “Selectivity LMP7 vs Beta5” value in assay [1] (setting [3]) is listed as “+++++ (Selectivity ≥ 150)”. Besides, the figures for the pIC50 in assay [1] (long incubation (120 min)) and in assay [2] (long incubation (120 min)) were more than 7.30 and less than 5.30, respectively.

In the case of `C=CC(=O)N(CC(=O)N[C@@H](Cc1ccsc1)B(O)O)c1ccc(Cl)c(Cl)c1` [Compound No. 97, [(1R)-1-[[2-(3,4-dichloro-N-prop-2-enoyl-anilino)acetyl]amino]-2-(3-thienyl)ethyl]boronic Acid], in assay [1] (setting [3]), the “Selectivity LMP7 vs Beta5” value is recorded as “+++++ (Selectivity ≥ 150)”. The pIC50 in assay [1] (long incubation (120 min)) was more than 7.30; in assay [2] (long incubation (120 min)) it was less than 5.30.

Turning to `C=CC(=O)N1CCCC[C@H]1C(=O)N[C@@H](Cc1ccc(C)cc1C)B(O)O` [Compound No. 39, [(1R)-2-(2,4-dimethylphenyl)-1-[[(2S)-1-prop-2-enoylpiperidine-2-carbonyl]amino]ethyl]boronic Acid], the “Selectivity LMP7 vs Beta5” value in assay [1] (setting [3]) is listed as “++ (50 ≤ Selectivity < 70)”. Also, the pIC50 is 5.30 to 6.30 in assay [1] (long incubation (120 min)) and less than 5.30 in assay [2] (long incubation (120 min)).

For `C=CC(=O)N(CC(=O)N[C@@H](Cc1ccc(C)cc1C)B(O)O)c1ccccc1F` [Compound No. 1, [(1R)-2-(2,4-dimethylphenyl)-1-[[2-(2-fluoro-N-prop-2-enoyl-anilino)acetyl]amino]ethyl]boronic Acid], the “Selectivity LMP7 vs Beta5” value in assay [1] (setting [4]) was “+++++ (Selectivity ≥ 150)”. Also, the pIC50 is more than 7.30 in assay [1] (incubation for 20 minutes) and less than 5.30 in assay [2] (incubation for 20 minutes).

For the compound `C=CC(=O)N(CC(=O)N[C@@H](Cc1ccc(C)cc1C)B(O)O)c1cccc(F)c1` [Compound No. 4, [(1R)-2-(2,4-dimethylphenyl)-1-[[2-(3-fluoro-N-prop-2-enoyl-anilino)acetyl]amino]ethyl]boronic Acid], in assay [1] (setting [4]), the “Selectivity LMP7 vs Beta5” value was “+++++ (Selectivity ≥ 150)”. Moreover, the pIC50 in assay [1] (incubation for 20 minutes) is more than 7.30; in assay [2] (incubation for 20 minutes) it was 5.30 to 6.30.

Take `C=CC(=O)N(CC)CC(=O)N[C@@H](Cc1ccc(C(F)(F)F)cc1C)B(O)O` [Compound No. 64, [(1R)-1-[[2-[ethyl(prop-2-enoyl)amino]acetyl]amino]-2-[2-methyl-4-(trifluoromethyl)phenyl]ethyl]boronic Acid]: in assay [1] (setting [3]), the “Selectivity LMP7 vs Beta5” value is “+++++ (Selectivity ≥ 150)”. Moreover, the pIC50 was 6.30 to 7.30 in assay [1] (long incubation (120 min)) and less than 5.30 in assay [2] (long incubation (120 min)).

Regarding `C=CC(=O)N(CC(=O)N[C@@H](Cc1cccs1)B(O)O)c1ccc(Br)cc1` [Compound No. 104, [(1R)-1-[[2-(4-bromo-N-prop-2-enoyl-anilino)acetyl]amino]-2-(2-thienyl)ethyl]boronic Acid], the “Selectivity LMP7 vs Beta5” value in assay [1] (setting [3]) was “+++++ (Selectivity ≥ 150)”. Further, the figures for the pIC50 in assay [1] (long incubation (120 min)) and in assay [2] (long incubation (120 min)) were more than 7.30 and 5.30 to 6.30, respectively.

Consider `C=CC(=O)N(CC(=O)N[C@@H](CCc1ccccc1)B(O)O)c1ccccc1F` [Compound No. 101, [(1R)-1-[[2-(2-fluoro-N-prop-2-enoyl-anilino)acetyl]amino]-3-phenyl-propyl]boronic acid], for which the “Selectivity LMP7 vs Beta5” value in assay [1] (setting [3]) is recorded as “+++++ (Selectivity ≥ 150)”. Moreover, the pIC50 was more than 7.30 in assay [1] (long incubation (120 min)) and less than 5.30 in assay [2] (long incubation (120 min)).
